According to patent US10292997B2, “Compositions and methods for stimulating wound healing” (priority 2011, dated 2019):

System: full thickness skin wounds
Assay: Wound closure rate of excised full thickness skin wounds treated with gel formulations
Format: in vivo, Hartley-derived albino guinea pigs

Substance: Insulin: Insulin alone as control; non-steroidal anabolic hormone, vehicle not stated in the table
- Peak Closure Day (day of maximum closure rate): 3.0 days
- Closure % (day) 50% (day on which 50% wound closure is reached, gel about 1 cc/cm^2, dressing changed every 48 hours): 5.0 days
- % Closure at Peak Closure Day (wound closure reached on the peak closure day): 30%
